Measured values as given in ChEMBL document CHEMBL2407022, “Advancement of Imidazo[1,2-a]pyridines with Improved Pharmacokinetics and Nanomolar Activity Against Mycobacterium tuberculosis” (ACS Med Chem Lett, 2013).
Converted amounts (≈) assume the structure as drawn.

Key:
Type in all cases: functional
Details in all cases: 336 h
[1] = tested on: Mycobacterium tuberculosis; assay: Antimycobacterial activity against isoniazid, rifampin, ethambutol, kanamycin and ofloxacin-resistant Mycobacterium tuberculosis after 14 days
[2] = tested on: Mycobacterium tuberculosis; assay: Antimycobacterial activity against isoniazid, rifampin, ethambutol, kanamycin and rifabutin-resistant Mycobacterium tuberculosis after 14 days
[3] = tested on: Mycobacterium tuberculosis; assay: Antimycobacterial activity against isoniazid, rifampin, ethambutol, streptomycin, kanamycin and ofloxacin-resistant Mycobacterium tuberculosis after 14 days

Cc1ccc2nc(C)c(C(=O)NCc3ccccc3)n2c1
MIC99 [1]: < 0.04 µM
MIC99 [2]: 2.3 µM (≈ 0.642 µg/mL)
MIC99 [3]: < 0.04 µM

Cc1ccn2c(C(=O)NCc3ncc(C(F)(F)F)cc3Cl)c(C)nc2c1
MIC99 [2]: 13 µM (≈ 4.98 µg/mL)
MIC99 [3]: 0.8 µM (≈ 0.306 µg/mL)

Cc1ccn2c(C(=O)NCc3ccc(Oc4ccc(F)cc4)cc3)c(C)nc2c1
MIC99 [1]: < 0.03 µM
MIC99 [2]: 0.8 µM (≈ 0.312 µg/mL)
MIC99 [3]: < 0.03 µM

O=[N+]([O-])c1cn2c(n1)OC[C@@H](OCc1ccc(OC(F)(F)F)cc1)C2 [PRETOMANID]
MIC99 [1]: 0.2 µM (≈ 0.0719 µg/mL)
MIC99 [2]: 0.5 µM (≈ 0.18 µg/mL)
MIC99 [3]: 0.9 µM (≈ 0.323 µg/mL)
